In assay [1] the test system is HASMC. The assay is described as follows: Inhibition of proliferation of human aortic smooth muscle cells at a concentration of 5 uM; NE is no Effect. Type of assay: functional, cell-based.
Assay [2] in a line: Inhibitory effect in preventing the oxidation of linoleic acid by 15-lipoxygenase at a concentration of 70 uM. Type of assay: functional.
Assay [3] is described as follows: Concentration required for 50% inhibition of TNF-alpha inducible Selectin E expression.
Assay [4] deals with HASMC. Description: Inhibition of proliferation of human aortic smooth muscle cells at a concentration of 5 uM. Type of assay: functional.
Assay [5] in a line: Concentration required for 50% inhibition of TNF-alpha inducible MCP-1 expression.
A further assay deals with Oryctolagus cuniculus. The assay is described as follows: Inhibition of progression of atherosclerosis in aorta after oral dosing in cholesterol fed rabbits. The format is functional.
In another assay the test system is Mus musculus. The assay is described as follows: Inhibition of progression of atherosclerosis in aorta after oral dosing in cholesterol fed LDL receptor knockout mice. The format is functional.

Here are results for three compounds from ChEMBL document CHEMBL1135320, “Novel phenolic antioxidants as multifunctional inhibitors of inducible VCAM-1 expression for use in atherosclerosis” (Bioorg Med Chem Lett, 2002).

Active and inactive are the calls of the source. The rule behind the calls is not given here.

As usually defined, the inhibition is how much of the control response was suppressed. Turning to `CC(C)(Sc1cc(C(C)(C)C)c(O)c(C(C)(C)C)c1)Sc1cc(C(C)(C)C)c(O)c(C(C)(C)C)c1`, in the assay with HASMC [1], the inhibition result is “inactive”.

As to `CC(C)(Sc1cc(C(C)(C)C)c(OC(=O)CCC(=O)O)c(C(C)(C)C)c1)Sc1cc(C(C)(C)C)c(OC(=O)CCC(=O)O)c(C(C)(C)C)c1`, in assay [2], the inhibition came out at 85%.

For orientation: IC50 means the concentration needed to halve the response being measured. Broadly, the Inhibition is the percentage by which the read-out fell short of the control. On to `CC(C)(Sc1cc(C(C)(C)C)c(O)c(C(C)(C)C)c1)Sc1cc(C(C)(C)C)c(OC(=O)CCC(=O)O)c(C(C)(C)C)c1` [SUCCINOBUCOL], for which the 50% inhibitory concentration (IC50) in assay [3] is 25 µM; in assay [5], 10 µM. The same compound returned an inhibition at 5 µM in the assay on HASMC [4] of around 50%. Moreover, the inhibition in assay [2] amounted to 85%. Further, the results for the Inhibition in the assay with Oryctolagus cuniculus and in the assay with Mus musculus were 94% and 43%, respectively.
